This experiment has as its target T1, purified HIV protease (Human immunodeficiency virus type 1 group M subtype B, UniProt P04585).
T1 construct: purified HIV protease was incubated with synthetic peptide
Put plainly: HIV-specific protease enzyme test (RP-HPLC analysis of cleavage of a synthetic Gag peptide). In kind it is biochemical. As to conditions: substance concentration causing 50% inhibition of protease activity; synthetic peptide substrate imitating Gag cleavage site. The protocol:
The results of the examples shown below were determined by the HIV test system described in the following references [compare Hansen, J., Billich, S., Schulze, T., Sukro, S. and Molling, K. (1988), EMBO Journal, Vol. 7, No. 6, pp. 1785-1791]: purified HIV protease was incubated with synthetic peptide which imitates a cleavage site in the Gag precursor protein and represents an in vivo cleavage site of the HIV protease. The resulting cleavage products of the synthetic peptide were analyzed by means of Reverse Phase High Performance Liquid Chromatography (RP-HPLC). The IC50 values indicated relate to the substance concentration which causes a 50% inhibition of the protease activity under the abovementioned test conditions.

Starred links: 1 amine or outer side, 2 acyl side, 3 side chain; linkers in the order of their positions; H or OH if unused. Non-standard residues stand in square brackets, D forms with d. Residues, ends and D or L forms follow the SMILES beside them. *: point of attachment. X1 = CC(C)C(C[C@H](O)[C@H](CC1CCCCC1)N[*:1])C(=O)[*:2]; NHCH2(2-pyridyl) = c1ccc(CN*)nc1; Boc = CC(C)(C)OC(=O)*; Aib = CC(C)(N)C(=O)O

`CC[C@H](C)[C@H](NC(=O)C(C[C@H](O)[C@H](CC1CCCCC1)NC(=O)[C@H](CC(N)=O)NC(=O)C(C)(C)NC(=O)OC(C)(C)C)C(C)C)C(=O)NCc1ccccn1` (stereo partly drawn) [Example I, Nα-{Nδ-{Nα-{1-[2-(1,1-dimethylethoxycarbonyl)amino-2-methyl]propanoyl}-(S)-asparaginyl}-1-[5-(S)-amino-6-cyclohexyl-4-(S)-hydroxy-2-(1-methyl)ethyl]-hexanoyl}-(S)-isoleucinyl-2-pyridylmethylamide] registered an IC50 of 500 nM.

In the case of `CC[C@H](C)[C@H](NC(=O)C(C[C@H](O)[C@H](CC1CCCCC1)NC(=O)[C@@H](NC(=O)C(C)(C)NC(=O)OC(C)(C)C)C(C)C)C(C)C)C(=O)NCc1ccccn1` (some centres unmarked) [V], 50 nM corresponded to half-maximal inhibition (IC50).

Compound `CC[C@H](C)[C@H](NC(=O)C(C[C@H](O)[C@H](CC1CCCCC1)NC(=O)[C@H](CC(N)=O)NC(=O)[C@H](Cc1ccccc1)NC(=O)C(C)(C)NC(=O)OC(C)(C)C)C(C)C)C(=O)NCc1ccccn1` (some centres unmarked) [II] (Boc-[Aib]FN[X1]I-{NHCH2(2-pyridyl)}) displayed an IC50 of 50 nM.

Compound `CC[C@H](C)[C@H](NC(=O)C(C[C@H](O)[C@H](CC1CCCCC1)NC(=O)[C@H](CC(N)=O)NC(=O)[C@H](Cc1ccccc1)NC(=O)[C@H](CO)NC(=O)C(C)(C)NC(=O)OC(C)(C)C)C(C)C)C(=O)NCc1ccccn1` (some centres unmarked) [III] (Boc-[Aib]SFN[X1]I-{NHCH2(2-pyridyl)}) registered a concentration for half-maximal inhibition (IC50) of 5 nM.

In turn, `CC[C@H](C)[C@H](NC(=O)C(C[C@H](O)[C@H](CC1CCCCC1)NC(=O)C(C)(C)NC(=O)OC(C)(C)C)C(C)C)C(=O)NCc1ccccn1` (stereo partly drawn) [Example IV, Nα-{Nδ-{1-[2-(1,1-dimethylethoxycarbonyl)amino-2-methyl]propanoyl}-1-[5-(S)-amino-6-cyclohexyl-4-(S)-hydroxy-2-(1-methyl)ethoyl]hexanoyl}-(S)-isoleucinyl-2-pyridylmethylamide] had a 50% inhibitory concentration (IC50) of 100 nM.

By IC50 is commonly meant the midpoint of a concentration-inhibition curve. Higher therefore signals weaker potency.

The record behind these values is patent publication US5145951A, “Peptides retroviral protease inhibitors comprising 2-amino-2-methylpropionic acid” (priority 1990, dated 1992).
